From the NIST ThermoML archive (doi:10.1016/j.tca.2007.10.001)
Numbers after ± are expanded uncertainties.

Tests used:
[1] = Crystal; DTA
[2] = Molar enthalpy of transition or fusion; details: Crystal
[3] = molar heat capacity at constant pressure; details: 101.33 kPa, Crystal

Structure (SMILES): Cc1ccc2ccc3ccc(C)nc3c2n1 [2,9-dimethyl-1,10-phenanthroline]
- Triple point temperature [1]: 435.9 ± 1 K
- Molar enthalpy of transition or fusion [2]: 4.21 ± 1.2 kcal/mol
- molar heat capacity at constant pressure ([3]; 298.2 K): 253 ± 81 J/K/mol
- molar heat capacity at constant pressure ([3]; 303.2 K): 274 ± 88 J/K/mol
- molar heat capacity at constant pressure ([3]; 308.2 K): 292 ± 93 J/K/mol
- molar heat capacity at constant pressure ([3]; 313.2 K): 306 ± 98 J/K/mol
- molar heat capacity at constant pressure ([3]; 318.2 K): 321 ± 100 J/K/mol
- molar heat capacity at constant pressure ([3]; 323.2 K): 331 ± 110 J/K/mol
- molar heat capacity at constant pressure ([3]; 328.2 K): 345 ± 110 J/K/mol
- molar heat capacity at constant pressure ([3]; 333.2 K): 354 ± 110 J/K/mol
- molar heat capacity at constant pressure ([3]; 338.2 K): 361 ± 120 J/K/mol
- molar heat capacity at constant pressure ([3]; 343.2 K): 370 ± 120 J/K/mol
- molar heat capacity at constant pressure ([3]; 348.2 K): 373 ± 120 J/K/mol
- molar heat capacity at constant pressure ([3]; 353.2 K): 374 ± 120 J/K/mol
- molar heat capacity at constant pressure ([3]; 358.2 K): 383 ± 120 J/K/mol
- molar heat capacity at constant pressure ([3]; 363.2 K): 383 ± 120 J/K/mol
- molar heat capacity at constant pressure ([3]; 368.2 K): 387 ± 120 J/K/mol
- molar heat capacity at constant pressure ([3]; 373.2 K): 384 ± 120 J/K/mol
- molar heat capacity at constant pressure ([3]; 378.2 K): 386 ± 120 J/K/mol
- molar heat capacity at constant pressure ([3]; 383.2 K): 390 ± 120 J/K/mol
- molar heat capacity at constant pressure ([3]; 388.2 K): 386 ± 120 J/K/mol
- molar heat capacity at constant pressure ([3]; 393.2 K): 383 ± 120 J/K/mol

Structure (SMILES): c1cnc2c(c1)ccc1cccnc12 [1,10-phenanthroline]
- Triple point temperature [1]: 391.1 ± 0.6 K
- Molar enthalpy of transition or fusion [2]: 2.82 ± 0.884 kcal/mol
- molar heat capacity at constant pressure ([3]; 298.2 K): 115 ± 37 J/K/mol
- molar heat capacity at constant pressure ([3]; 300.2 K): 116 ± 37 J/K/mol
- molar heat capacity at constant pressure ([3]; 302.2 K): 117 ± 37 J/K/mol
- molar heat capacity at constant pressure ([3]; 304.2 K): 125 ± 40 J/K/mol
- molar heat capacity at constant pressure ([3]; 306.2 K): 127 ± 41 J/K/mol
- molar heat capacity at constant pressure ([3]; 308.2 K): 133 ± 43 J/K/mol
- molar heat capacity at constant pressure ([3]; 310.2 K): 140 ± 45 J/K/mol
- molar heat capacity at constant pressure ([3]; 312.2 K): 150 ± 48 J/K/mol
- molar heat capacity at constant pressure ([3]; 314.2 K): 156 ± 50 J/K/mol
- molar heat capacity at constant pressure ([3]; 316.2 K): 165 ± 53 J/K/mol
- molar heat capacity at constant pressure ([3]; 318.2 K): 175 ± 56 J/K/mol
- molar heat capacity at constant pressure ([3]; 320.2 K): 184 ± 59 J/K/mol
- molar heat capacity at constant pressure ([3]; 322.2 K): 192 ± 61 J/K/mol
- molar heat capacity at constant pressure ([3]; 324.2 K): 199 ± 64 J/K/mol
- molar heat capacity at constant pressure ([3]; 326.2 K): 206 ± 66 J/K/mol
- molar heat capacity at constant pressure ([3]; 328.2 K): 213 ± 68 J/K/mol
- molar heat capacity at constant pressure ([3]; 330.2 K): 221 ± 71 J/K/mol
- molar heat capacity at constant pressure ([3]; 332.2 K): 226 ± 72 J/K/mol
- molar heat capacity at constant pressure ([3]; 334.2 K): 235 ± 75 J/K/mol
- molar heat capacity at constant pressure ([3]; 336.2 K): 237 ± 76 J/K/mol
- molar heat capacity at constant pressure ([3]; 338.2 K): 245 ± 78 J/K/mol
- molar heat capacity at constant pressure ([3]; 340.2 K): 247 ± 79 J/K/mol
- molar heat capacity at constant pressure ([3]; 342.2 K): 253 ± 81 J/K/mol
- molar heat capacity at constant pressure ([3]; 344.2 K): 253 ± 81 J/K/mol
- molar heat capacity at constant pressure ([3]; 346.2 K): 256 ± 82 J/K/mol
- molar heat capacity at constant pressure ([3]; 348.2 K): 260 ± 83 J/K/mol
- molar heat capacity at constant pressure ([3]; 350.2 K): 263 ± 84 J/K/mol
- molar heat capacity at constant pressure ([3]; 352.2 K): 265 ± 85 J/K/mol
- molar heat capacity at constant pressure ([3]; 354.2 K): 270 ± 86 J/K/mol
- molar heat capacity at constant pressure ([3]; 356.2 K): 271 ± 87 J/K/mol
- molar heat capacity at constant pressure ([3]; 358.2 K): 276 ± 88 J/K/mol
- molar heat capacity at constant pressure ([3]; 360.2 K): 279 ± 89 J/K/mol
